Columns and labels:
[1] = system: Colon26 tumors; assay: In vivo PDT efficacy; design: species or system BALB/c mice
Method: Tumors were exposed to light (135 J/cm^2, 75 mW/cm^2) at 24 h (hour) postinjection (optimal time for tumor uptake for both the PSs).
For determining the in vivo imaging and therapeutic potential of 2, BALB/c mice (5-10 mice/group) bearing Colon26 tumors were used. In brief, 1×10^6 Colon26 cells were injected in mice subcutaneously. The tumors were left to grow for 1 week until they achieve the desired size (3-5 mm) for treatment. The photosensitizer was injected intravenously following the animal protocol approved by RPCI IACUC committee. Irradiance occurred 24 hours after i. v. injection; light dose was 135 J/cm^2 at a dose rate of 75 mW/cm^2 using the near-IR wavelengths of interest: 665 nm or 789 nm.
Two axes of the tumor (L, longest axis; W, shortest axis) were measured in millimeters with the aid of a Vernier caliper. Tumor weight (mg) was estimated as a formula: tumor weight=1/2 (L×W2). Tumor measurements were taken daily for the first 10 days and at least three tine a week for the first 4 weeks of post therapy and twice a week thereafter. Endpoints were 400 mm^3 tumor volume or 60 days.

[2] = Nanosecond laser flash transient absorption of triplet excited state in PhCN; assay type: physicochemical
Method: The decay time profiles at 580 nm in (b) argon- and (c) air-saturated PhCN. The single-exponential fitting curves are shown as gray lines.
Singlet oxygen is generated by energy transfer from the triplet excited state of 4 to molecular oxygen (O2). […] The decay profile of T-T absorption was obeyed with the single exponential curve (FIG. 6b). The lifetime was determined to be τ=38 μs. […] The energy transfer rate constant was determined to be 1.4×10^9M^−1 s^−1, indicating the efficient energy transfer occurred between the triplet excited state of 4 and O2 to for singlet oxygen generation.
(§1) Instrumentation: Measurement of fluorescence quantum yields were carried out on a Hamamatsu C9920-0X(PMA-12) U6039-05 fluorescence spectrofluorometer. Femtosecond laser flash photolysis was conducted using a Clark-MXR 2010 laser system and an optical detection system provided by Ultrafast Systems (Helios). The source for the pump and probe pulses were derived from the fundamental output of Clark laser system (775 nm, 1 mJ pulse-1 and fwhm=150 fs) at a repetition rate of 1 kHz. A second harmonic generator introduced in the path of the laser beam provided […] laser pulses for excitation. A 95% of the fundamental output of the laser was used to generate the second harmonic, while 5% of the deflected output was used for white light generation. Prior to generating the probe continuum, the laser pulse was fed to a delay line that provided an experimental time window of 1.6 ns with a maximum step resolution of 7 fs. The pump beam was attenuated at 5 μJ pulse-1 with a spot size of 2 mm diameter at the sample cell where it was merged with the white probe pulse in a close angle (<10°). […] The photodynamics were monitored by continuous exposure to a xenon lamp for visible region and halogen lamp for near-IR region as a probe light and a photomultiplier tube (Hamamatsu 2949) as a detector.

[3] = Fluorescence quantum yield and lifetime in benzonitrile (PhCN); assay type: physicochemical
Method: (B) Fluorescence decay curve of 4 observed at 787 nm. Excitation wavelength: 651 nm.
as §1

[4] = system: Colon26 tumors; assay: In vivo whole body tumor fluorescence imaging (IVIS Spectrum); design: species or system BALB/c mice; conditions: non-radioactive analogs, i.v., post-injection
Method: Before evaluating in vivo PDT efficacy of PS 4 by exposing the tumors with light, the time point for optimal tumor uptake of PS was determined by whole body fluorescence imaging of tumored mice at various time points after injecting the PS.
The multi-spectral imaging system, IVIS Spectrum (Perkin-Elmer) along with Living Image (image acquisition and analysis software) was used. IVIS Spectrum has the capability to use either trans-illumination (from the bottom) or epi-illumination (from the top) to illuminate in vivo fluorescent sources. […] Regions of interest (ROI) were defined for areas of compound accumulation (tumor, liver, skin) and total and average signal within the region were recorded. Fluorescent intensity is expressed as the total radiant efficiency ([p/s]/[μW/cm^2]. Results are expressed as mean total radiant efficiency of three mice±SD.

[5] = Absorbance (UV-VIS) in methanol; assay type: physicochemical; conditions: ε665 for 2 (peak 660 nm), ε785 for 4 (peak 785 nm)
Method: Absorbance of 2 and 4 was measured using different concentrations in methanol on UV-VIS and indicates far-red peaks at 660 nm and 785 nm, with extinction coefficients ε665=47,500 L·mol^−1 cm^−1 and ε785=18,100 L·mol^−1 cm^−1 respectively.
Chemistry Methods: All reactions were carried out in heat gun-dried glassware under an atmosphere of nitrogen and magnetic stirring. Thin layer chromatography (TLC) was done on pre-coated silica gel sheets (layer thickness 0.2 mm). Column chromatography was performed either using silica gel 60 (70-230 mesh) or neutral alumina grade III. In some cases preparative TLC was used for the purification of compounds. Purity of the compounds was ascertained by TLC and HPLC analysis. All compounds including the intermediates were >95% pure. UV-visible spectra were recorded on FT UV-visible spectrophotometer using methanol as a solvent. Mass spectrometry analyses were performed at the Mass Spectrometry Facility, University at Buffalo, N.Y. Compounds 1 and 2 were synthesized by following the methodologies previously described.

Question: What does the source list for “methyl 3-[1′-(m-iodobenzyloxy)ethyl]-3-devinyl-13^3-keto-13^2-methoxycyclohexene [Compound 4]”?
Answer: PDT efficacy compared with 2 (in words) ([1]; BALB/c mice bearing Colon26 tumors): far lower than that of 2; tumor cure after PDT ([1]; dose 1 μmol/kg, light 135 J/cm^2, 75 mW/cm^2 at 24 h postinjection, 5 mice/group): no tumor cure; long-term PDT efficacy at higher drug doses (in words) ([1]; higher drug doses than 1 μmol/kg, light 135 J/cm^2, 75 mW/cm^2 at 24 h): no significant long-term PDT efficacy; energy transfer rate constant, triplet excited state to O2 ([2]; PhCN): 1.4e+09 M⁻¹ s⁻¹; triplet decay rate constant in the presence of dissolved O2 ([2]; air-saturated PhCN): 2.3e+06 s⁻¹; triplet excited state lifetime τ ([2]; deaerated (argon-saturated) PhCN, T-T absorption decay at 580 nm): 38 μs; fluorescence lifetime ([3]; PhCN, decay observed at 787 nm, excitation 651 nm): 0.81 ns; Fluorescence quantum yield Φ ([3]; benzonitrile (PhCN), excited at 532 nm): 0.013; time of optimal uptake in tumor (fluorescence imaging) [4]: 24 h; extinction coefficient at far-red absorbance peak [5]: 18,100 L·mol^−1 cm^−1

Source: US20220194952A1, “TETRAPYRROLIC CONJUGATES AND USES THEREOF FOR IMAGING” (Health Research, Inc., priority 2019, published 2022)
